Entries after “also recorded” stand apart in the source; their conditions may differ.
Columns and labels:
Format in all cases: cell-based
[1] = system: several genomic sites in HEK293T cells (target nucleic acid of SEQ ID NO:132); test: Deaminase screen for base diversification, MCP-deaminase recruited to Cas9 nickase (D10A), HTS in HEK293T cells; settings: MCP fusion recruited to Cas9 nickase (D10A) by 2xMS2 gRNA, no UGI, FIG. 4
Description: They were fused to MCP (MS2 […]) at the N-terminus, and recruited towards Cas9 nickase (D10A) by using gRNA fused to 2×MS2 hairpins. They were assayed against several genomic sites in HEK293T cells. Base conversion profiles were analyzed by high-throughput sequencing and the results are shown in FIG. 4 for the target nucleic acid of SEQ ID NO:132.
AP endonuclease I (APE1) is an enzyme within the base excision repair pathway that cleaves the phosphodiester bond at the abasic site, generating a nick in the base-edited strand. […] In constructs lacking UGI, base diversification is usually accompanied with indels. For example, in all target sites described above, about 5-20% of products contain indels, which lowers the efficiency of base diversification (FIG. 5).

[2] = biological target: T1, APE1 (Homo sapiens, UniProt P27695); test: APE1 inhibitor effect on base diversification and indels, AID or pmCDA1 fused to Cas9 nickase (D10A), HTS in HEK293T cells; settings: 100 μM and 200 μM, 3 d
T1 construct: endogenous in cells; host or cells: HEK293T
T1 sequence (P27695 whole entry, the tested form may be a part): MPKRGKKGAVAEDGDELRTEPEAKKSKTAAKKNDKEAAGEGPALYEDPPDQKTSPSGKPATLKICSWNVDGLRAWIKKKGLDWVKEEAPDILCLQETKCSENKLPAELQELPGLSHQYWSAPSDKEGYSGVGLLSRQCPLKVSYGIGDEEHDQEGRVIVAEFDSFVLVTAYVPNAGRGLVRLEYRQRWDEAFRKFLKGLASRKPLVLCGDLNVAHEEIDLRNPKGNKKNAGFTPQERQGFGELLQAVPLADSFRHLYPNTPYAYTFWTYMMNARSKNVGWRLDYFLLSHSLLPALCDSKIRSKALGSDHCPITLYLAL
Description: APE1 was inhibited by using CRT0044876 (Scheme 1), which is a potent and well-known APE1 inhibitor.
To ascertain whether this compound improves base diversification profile, HEK293T cells were treated with AID or pmCDA1 fused to Cas9 nickase (D10A) in the presence of CRT0044876. After 3 d, the cells were harvested and analyzed through high-throughput sequencing (HTS).

[3] = system: Sites 1-4 (SEQ ID NO:131-134); test: Fusion architecture for adenine diversifiers (ABE8.20m N- or C-terminal glycosylase fusions), HTS in HEK293T cells; settings: four guide RNAs, 3 days, FIG. 9
Description: Several glycosylase domains were fused to either the N-terminus or C-terminus of ABE8.20m (SEQ ID NO:57). For the N-terminal fusions to ABE8.20m, the deaminase was between the glycosylase domain and CRISPR-Cas effector protein, and, for the C-terminal fusions to ABE8.20m, the CRISPR-Cas effector protein was between the glycosylase domain and deaminase. Three putative inosine glycosylases were tested, which are: hMPG, a methylpurine glycosylase (MPG) from Homo sapiens (SEQ ID NO:84, UniProtKB—P29372); mMPG from Mus musculus (SEQ ID NO:83, UniProtKB—Q04841); and SpThp1, a known uracil DNA glycosylase that also has activity towards inosine, from Schizosaccharomyces pombe (SEQ ID NO:79, UniProtKB—O59825) (Alseth et al. Nucleic Acids Research 2005, 33(3) 1123-1131).
The following plasmids were transfected into HEK293T cells: a plasmid encoding ABE8.20m or a fusion protein including ABE8.20m fused to one of the above inosine glycosylases, and a plasmid encoding a guide RNA. […] Four guide RNAs were tested corresponding to the following four target nucleic acids (i.e., sites): Site 1: […] (SEQ ID NO:131), Site 2: […] (SEQ ID NO:132), Site 3: […] (SEQ ID NO:133), and Site 4: […] (SEQ ID NO:134). After three days, the editing efficiency was measured by high throughput sequencing of targeted loci.

[4] = system: endogenous loci; test: Transversion mutations from adenine: ABE7.10 with inosine glycosylases (fusion or in trans), HTS in HEK293T cells; settings: all conditions that used ABE7.10, 3 days
Source text: The experiment was designed to generate transversion mutations from adenines by promoting inosines to undergo the same cellular DNA repair pathways that generate transversion mutations during translesion-bypass polymerization in cytosine base editing. While not wishing to be bound to any particular theory, it was hypothesized that the key step was to facilitate the glycosylation of inosines generated during adenine base editing. It was hypothesized that once glycosylated, the resulting abasic site can be a substrate for translesion-bypass repair and that this would lead to transversion mutations. Exogenous inosine glycosylases were provided along with ABE to promote inosine glycosylation.
Several inosine glycosylases were screened in HEK293T cells and it was determined whether they were capable of acting on inosines generated by ABE. If inosine is converted into an abasic site, and subsequently repaired through translesion-bypass polymerization, transversion mutations can be generated from adenines.
Five different glycosylases from various species were selected for testing. The following genes were codon-optimized and cloned into a mammalian expression vector, either as unfused gene, or as a C-terminal fusion to ABE7.10 (species source in parenthesis); hMPG (Homo sapiens) having an amino acid sequence of SEQ ID NO:84, mMPG (Mus musculus) having an amino acid sequence of SEQ ID NO:83, rMPG (Rattus norvegicus) having an amino acid sequence of SEQ ID NO:80, SpThp1 (Schizosaccharomyces pombe) having an amino acid sequence of SEQ ID NO:79, MaHDG (Methanosarcina acetivorans) having an amino acid sequence of SEQ ID NO:81, and MbHDG (Methanosarcina barkeri) having an amino acid sequence of SEQ ID NO:82. […] The HEK293T cells were transfected with a plasmid encoding gRNA targeting endogenous loci and either the fusion plasmid or a mixture of plasmids expressing ABE7.10 and the above inosine glycosylases. After 3 days, high-throughput sequencing was used to determine the editing result of targeted adenines. Mock transfection (using pUC19) was used to set baseline editing. All conditions that used ABE7.10 generated 10-20% guanine transition, as expected.

[5] = system: HEK2 genomic site; test: Adenine base editing with inosine glycosylases, HEK2 site (FIGS. 7A-7C); settings: all conditions that used ABE
Source text: FIGS. 7A-7C are graphs showing adenine base editing results for a HEK2 genomic site. Adenines in the target window were diversified into cytosine and thymine. All conditions that used ABE generated ˜10-20% guanine mutation, as expected. FIG. 7A is a graph providing the results for inosine glycosylase fusion constructs. FIG. 7B is a graph providing the results for inosine glycosylases provided in trans and overexpressed in the cell. FIG. 7C is a graph showing the amount of indels generated by the constructs.
(§1) Five different glycosylases from various species were selected for testing. The following genes were codon-optimized and cloned into a mammalian expression vector, either as unfused gene, or as a C-terminal fusion to ABE7.10 (species source in parenthesis); hMPG (Homo sapiens) having an amino acid sequence of SEQ ID NO:84, mMPG (Mus musculus) having an amino acid sequence of SEQ ID NO:83, rMPG (Rattus norvegicus) having an amino acid sequence of SEQ ID NO:80, SpThp1 (Schizosaccharomyces pombe) having an amino acid sequence of SEQ ID NO:79, MaHDG (Methanosarcina acetivorans) having an amino acid sequence of SEQ ID NO:81, and MbHDG (Methanosarcina barkeri) having an amino acid sequence of SEQ ID NO:82. […]

[6] = system: FANCF genomic site; test: Adenine base editing with inosine glycosylases, FANCF site (FIGS. 8A-8C); settings: all conditions that used ABE
Source text: FIGS. 8A-8C are graphs showing adenine base editing results for a FANCF genomic site. Adenines in the target window were diversified into cytosine and thymine. All conditions that used ABE generated ˜10-20% guanine mutation, as expected. FIG. 8A is a graph providing the results for inosine glycosylase for fusion constructs. FIG. 8B is a graph providing the results for inosine glycosylases provided in trans and overexpressed in the cell. […] is a graph showing the amount of indels generated by the constructs.
as §1

[7] = system: spacer sequence corresponding to SEQ ID NO:131; test: SunTag recruitment system for adenine base diversifier / reduced Cas9 binding affinity, HTS in HEK293T cells; settings: scFv-TadA8.20m-GB1 or scFv-TadA8e-GB1, glycosylase overexpressed in trans, FIGS. 10 and 11
Source text: Different forms of Cas9 were expressed in HEK293T cells, which were: nCas9(D10A) (SEQ ID NO:36), dCas9-SunTag (SEQ ID NO:135), nCas9(D10A)-SunTag (SEQ ID NO:136), and enCas9(D10A)-SunTag (SEQ ID NO:137), along with a SunTag-antibody-fused adenine deaminase, with a GB1 solubility tag at the C-terminus, having a sequence of SEQ ID NO:138 or SEQ ID NO:139. An inosine glycosylase, which was hMPG (SEQ ID NO:84), mMPG (SEQ ID NO:83), or SpThp1 (SEQ ID NO:79) was overexpressed in trans. The glycosylase was not actively recruited, but was expressed in the cell at the same time as the Cas9 and deaminase.
In an attempt to reduce the Cas9 DNA binding affinity to a target nucleic acid, Cas9 having mutated amino acid residues that may interact with the target nucleic acid were used. Without being limited to any particular theory, the thought was that this would facilitate the dissociation of Cas9 from the target nucleic acid once adenine is converted to inosine; thus, providing greater access for inosine glycosylase. Specifically, enCas9(D10A) (SEQ ID NO:39) contains two mutations that reduce DNA binding affinity compared to nCas9(D10A) (Halperin et al. Nature 2018 560(7717):248-252). The effect of the mutations in the context of SunTag-mediated adenine diversification were tested. […]
After three days, the editing efficiency was measured by high throughput sequencing of targeted loci. […]

[8] = system: Sites 1-4 (SEQ ID NO:131-134); test: Truncation of inosine glycosylase regulatory domain, hMPG vs thMPG fusions to ABE8.20m; settings: N- and C-terminus fusions to ABE8.20m, four sites, FIG. 12
Source text: Methylpurine glycosylase (MPG) usually contains two domains. The catalytic domain of MPG is necessary for excising inosine from DNA (Hollis, Lau, Ellenberger. Mutation Research 2000, 460, 201-210). Without being bound to any particular theory, in an effort to reduce the size of MPG, potentially allow for better inosine access to the catalytic domain, and potentially improve the solubility of the fusion complex, the N-terminus of MPG was truncated.
In this experiment, both N-terminus and C-terminus fusions of hMPG to ABE8.20m (SEQ ID NO:57) were tested with a truncated variant of hMPG (thMPG) (SEQ ID NO:85). Four different target nucleic acids were tested, which were: Site 1: […] (SEQ ID NO:131), Site 2: […] (SEQ ID NO:132), Site 3: […] (SEQ ID NO:133), and Site 4: […] (SEQ ID NO:134).

APOBEC3A: cytosine deaminase fused to MCP, recruited towards Cas9 nickase (D10A) by gRNA with 2×MS2 hairpins
conversion of C into G, T, and A within the base editing window [1]: robustly converts C into G, T, and A nucleotides within the base editing window

O=C(O)c1cc2cccc([N+](=O)[O-])c2[nH]1 [CRT0044876]
base diversification rate ([2]; FIGS. 6A and 6C): some decrease in base diversification rate was also observed
amount of indel generated ([2]; multiple target sites, FIGS. 6B and 6D): significant decrease in the amount of indel generated across multiple target sites; also recorded: reduces the rate of indel mutations

ABE8.20m: adenine base editor, SEQ ID NO:57, without glycosylase domain
A to C or T change of target adenine [3]: negligible A to C or T change

ABE7.10: adenine base editor, unfused ABE7.10 having amino acid sequence of SEQ ID NO:55
guanine transition of targeted adenines [4]: 10-20%
guanine mutation [5]: 10-20%
guanine mutation [6]: 10-20%

nCas9(D10A)-SunTag: Cas9 nickase (D10A) fused to SunTag, SEQ ID NO:136
A to C or T editing [7]: increase in A to C or T editing compared to expression of nCas9(D10A) without SunTag

B1: thMPG: truncated variant of hMPG, SEQ ID NO:85, fused to ABE8.20m (protein, listed as Homo sapiens)
chain: KGHLTRLGLEFFDQPAVPLARAFLGQVLVRRLPNGTELRGRIVETEAYLGPEDEAAHSRGGRQTPRNRGMFMKPGTLYVYIIYGMYFCMNISSQGDGACVLLRALEPLEGLETMRQLRSTLRKGTASRVLKDRELCSGPSKLCQALAINKSFDQRDLAQDEAVWLERGPLEPSEPAVVAAARVGVGHAGEWARKPLRFYVRGSPWVSVVDRVAEQDTQA
adenine conversion to C or T activity, truncated vs full-length MPG [8]: no observed decrease in activity and, in some cases, there was an observed increase in adenine conversion to C or T

B2: APOBEC1: cytosine deaminase fused to MCP, recruited towards Cas9 nickase (D10A) by gRNA with 2×MS2 hairpins (protein, listed as Rattus norvegicus)
chain: SSETGPVAVDPTLRRRIEPHEFEVFFDPRELRKETCLLYEINWGGRHSIWRHTSQNTNKHVEVNFIEKFTTERYFCPNTRCSITWFLSWSPCGECSRAITEFLSRYPHVTLFIYIARLYHHADPRNRQGLRDLISSGVTIQIMTEQESGYCWRNFVNYSPSNEAHWPRYPHLWVRLYVLELYCIILGLPPCLNILRRKQPQLTFFTIALQSCHYQRLPPHILWATGLK
conversion of C into G, T, and A within the base editing window [1]: robustly converts C into G, T, and A nucleotides within the base editing window
